From patent US9789110B2, “Diacylglycerol acyltransferase 2 inhibitors” (PFIZER INC., priority 2014, dated 2017)

What was measured:
[1] = molecular target: hDGAT2 (Homo sapiens (Human), UniProt Q96PD7); test: In vitro DGAT2 assay, hDGAT2 membrane fraction, [14C]decanoyl-CoA scintillation readout; format: biochemical; conditions: geometric mean; FLAG-hDGAT2 membrane fraction; 2 h preincubation; read-out: IC50 for inhibition of DGAT2
Method: Recombinant baculovirus for the FLAG-tagged hDGAT2 was generated in SF9 insect cells using Bac-to-Bac baculovirus expression system (Invitrogen) according to the manufacturer's protocol. For the expression of hDGAT2, SF9 cells (20 L) grown in Sf90011 media were infected with hDGAT2 baculovirus at a multiplicity of infection of 1 in a Wave Bioreactor System 20/50P wave bag (GE Healthcare). After 40 hours of infection, the cells were then harvested by centrifugation at 5,000×g. The cell pellets were washed by resuspending in phosphate buffered saline (PBS) and collected by centrifugation at 5,000×g. The cell paste was flash frozen in liquid N2 and stored at −80° C. until needed. All operations below were at 4° C. unless otherwise noted. The cells were resuspended in lysis buffer (50 mM Tris-HCl, pH 8.0, 250 mM sucrose) including 1 mM ethylenediaminetetraacetic acid (EDTA) and the complete protease inhibitor cocktail (Roche Diagnostics) at a ratio of 3 ml buffer per 1 g cell paste. The cells were lysed by dounce homogenizer. The cell debris was removed by centrifugation at 1,000×g for 20 min, and the supernatant was centrifuged at 100,000×g for 1 hour. The resulting pellet was rinsed three times by filling ultracentrifuge tubes to the top with ice cold PBS before decanting. The washed pellet was resuspended with gentle stirring for 1 hour in lysis buffer containing 8 mM 3-[(3-cholamidopropyl)dimethylammonio]-1-propanesulfonate (CHAPS) at a ratio of 1 mL buffer per 1 g of original cell paste and centrifuged again at 100,000×g for 1 hour. The resulting supernatant was aliquotted, flash frozen in liquid N2, and stored at −80° C. until use.
For determination of IC50 values, the reactions were carried out in 384-well white Polyplates (Perkin Elmer) in a total volume of 20 μL. To […] compounds dissolved in 100% DMSO and spotted at the bottom of each well, 5 μL of 0.04% bovine serum albumin (BSA) (fatty acid free, Sigma Aldrich) was added and the mixture was incubated at room temperature for 20 minutes. To this mixture, 10 μL of hDGAT2 membrane fraction (0.01 mg/mL) diluted in 100 mM Hepes-NaOH, pH 7.4, 20 mM MgCl2 containing 200 nM methyl arachidonyl fluorophosphonate (Cayman Chemical; dried from ethyl acetate stock solution under argon gas and dissolved in DMSO as 5 mM stock) was added. After this mixture was preincubated at room temperature for 2 hours, DGAT2 reactions were initiated by the addition of 4 μL of substrates containing 30 μM [1-^14C]decanoyl-CoA (custom-synthesized by Perkin Elmer, 50 mCi/mmol) and 125 μM 1,2-didecanoyl-sn-glycerol (Avanti Polar Lipids) dissolved in 12.5% acetone. The reaction mixtures were incubated at room temperature for 40 min and the reactions were stopped by addition of 5 μL of 1% H3PO4. After the addition of 45 μL MicroScint-E (Perkin-Elmer), plates were sealed with Top Seal-A covers (Perkin-Elmer) and phase partitioning of substrates and products was achieved using a HT-91100 microplate orbital shaker (Big Bear Automation, Santa Clara, Calif.). Plates were centrifuged at 2,000×g for 1 min in an Allegra 6R Centrifuge (Beckman Coulter) and then were sealed again with fresh covers before reading in a 1450 Microbeta Wallac Trilux Scintillation Counter (Perkin Elmer). DGAT2 activity was measured by quantifying the generated product [^14C]tridecanoylglycerol in the upper organic phase.
Inhibitors were tested at eleven different concentrations to generate IC50 values for each compound.

[2] = molecular target: DGAT2 in primary human hepatocytes (Homo sapiens (Human), UniProt Q96PD7); test: IC50 for DGAT2 inhibitors in human hepatocytes, [14C]-glycerol incorporation into lipids; format: cell-based; conditions: average; cryopreserved human hepatocytes; selective DGAT1 inhibitor 3 μM in all wells; 3 hour incubation; read-out: IC50 in primary human hepatocytes
Method: For evaluation of the effects of DGAT2 inhibitors in a cell-based setting, cryopreserved human hepatocytes (Lot QOC and NON, Celsis, Chicago, Ill.) were thawed and plated onto type I collagen-coated plates according to the manufacturer's instructions. After 24 hours overnight recovery period, the cells were overlayed with media containing 250 μg/ml Matrigel (BD Biosciences, San Jose, Calif.). The following day, media was aspirated and replaced with serum-free Williams Media E (Life Technologies, Grand Island, N.Y.) containing 400 μM sodium dodecanoate (Sigma-Aldrich, St. Louis, Mo.). Forty minutes later, DGAT2 inhibitors (prepared as 100× stocks in 25% DMSO, 75% Williams' Media E) were added to the desired final concentration. […] After a 20 minute preincubation, 0.2 μCi [1,3-^14C]-glycerol glycerol (American Radio Chemicals, St. Louis, Mo.) was added to each well and mixed by gentle pipetting prior to a 3 hour incubation. At this point, media was aspirated and the cells were lysed in isopropyl alcohol: tetrahydrofuran (9:1) prior to centrifugation at 3000 rpm for 5 minutes. Radiolabeled lipids were resolved using a 2-solvent system by thin layer chromatography using standard technique (solvent 1 contained ethyl acetate:isopropyl alcohol:chloroform:methanol:0.25% potassium chloride in water (100:100:100:40.2:36.1, v/v/v/v) and solvent 2 contained hexane: diethyl ether: acetic acid (70:27:3, v/v/v)). After separation, radiolabeled lipids were visualized using a Molecular Dynamics' PhosphorImager system. The half maximal inhibitory concentrations (IC50 values) were determined using GraphPad Prism (GraphPad Software, Inc., La Jolla, Calif.).
Table 4 below provides IC50 values for the Examples in accordance with the above-described assay. Results were reported as average IC50 values, low and high IC50 range (95% confidence interval).

Chain of hDGAT2 (Q96PD7 whole entry): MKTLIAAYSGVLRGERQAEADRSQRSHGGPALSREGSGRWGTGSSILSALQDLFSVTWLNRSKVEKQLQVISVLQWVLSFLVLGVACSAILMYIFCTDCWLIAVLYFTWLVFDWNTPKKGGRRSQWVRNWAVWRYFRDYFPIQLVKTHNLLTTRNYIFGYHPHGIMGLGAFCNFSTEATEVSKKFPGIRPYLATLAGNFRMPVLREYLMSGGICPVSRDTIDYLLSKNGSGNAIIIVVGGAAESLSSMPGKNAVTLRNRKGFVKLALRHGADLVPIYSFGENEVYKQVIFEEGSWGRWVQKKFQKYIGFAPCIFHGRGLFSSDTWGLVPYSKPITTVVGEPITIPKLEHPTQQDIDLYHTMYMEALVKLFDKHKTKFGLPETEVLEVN
Chain of DGAT2 in primary human hepatocytes (Q96PD7 whole entry): as above

IC50 [1] | IC50 [2] | Structure (SMILES)
182 nM | 19.8 nM | CCNC(=O)c1cnc(N2CCC[C@@H](Oc3ccc(C#N)cc3OCC)C2)nc1 [Example 17, (R)-2-(3-(4-cyano-2-ethoxyphenoxy)piperidin-1-yl)-N-ethylpyrimidine-5-carboxamide]
38.1 nM | 57 nM | CCOc1ccccc1O[C@@H]1CCCN(c2ncc(C(=O)NCc3cc(C(=O)O)ccc3C)cn2)C1 [Example 9, (R)-3-((2-(3-(2-ethoxyphenoxy)piperidin-1-yl)pyrimidine-5-carboxamido)methyl)-4-methylbenzoic acid]
222 nM | 57.8 nM | CCOc1ccccc1O[C@@H]1CCCN(c2ncc(C(=O)N[C@H]3CCC[C@H]3C(=O)O)cn2)C1 [Example 6, (1R,2S)-2-(2-((R)-3-(2-ethoxyphenoxy)piperidin-1-yl)pyrimidine-5-carboxamido)cyclopentane-1-carboxylic acid]
47.7 nM | 45 nM | CCOc1ccccc1O[C@@H]1CCCN(c2ncc(C(=O)NCc3cc(C)cc(C(=O)O)c3)cn2)C1 [Example 16, (R)-3-((2-(3-(2-ethoxyphenoxy)piperidin-1-yl)pyrimidine-5-carboxamido)methyl)-5-methylbenzoic acid]
